Measured values: ChEMBL document CHEMBL2007661, “Compounds: GSK PKIS; Assays: UNC Frye lab” (2012)
Several values for one entry are separate records, joined by “and”; a condition that tells them apart may be missing. Identical values can stand only once.

Experiments:
[1] = target: T1, Inhibitor of nuclear factor kappa-B kinase subunit epsilon (Homo sapiens) (UniProt Q14164); settings: at 1 µM
T1 sequence (whole entry): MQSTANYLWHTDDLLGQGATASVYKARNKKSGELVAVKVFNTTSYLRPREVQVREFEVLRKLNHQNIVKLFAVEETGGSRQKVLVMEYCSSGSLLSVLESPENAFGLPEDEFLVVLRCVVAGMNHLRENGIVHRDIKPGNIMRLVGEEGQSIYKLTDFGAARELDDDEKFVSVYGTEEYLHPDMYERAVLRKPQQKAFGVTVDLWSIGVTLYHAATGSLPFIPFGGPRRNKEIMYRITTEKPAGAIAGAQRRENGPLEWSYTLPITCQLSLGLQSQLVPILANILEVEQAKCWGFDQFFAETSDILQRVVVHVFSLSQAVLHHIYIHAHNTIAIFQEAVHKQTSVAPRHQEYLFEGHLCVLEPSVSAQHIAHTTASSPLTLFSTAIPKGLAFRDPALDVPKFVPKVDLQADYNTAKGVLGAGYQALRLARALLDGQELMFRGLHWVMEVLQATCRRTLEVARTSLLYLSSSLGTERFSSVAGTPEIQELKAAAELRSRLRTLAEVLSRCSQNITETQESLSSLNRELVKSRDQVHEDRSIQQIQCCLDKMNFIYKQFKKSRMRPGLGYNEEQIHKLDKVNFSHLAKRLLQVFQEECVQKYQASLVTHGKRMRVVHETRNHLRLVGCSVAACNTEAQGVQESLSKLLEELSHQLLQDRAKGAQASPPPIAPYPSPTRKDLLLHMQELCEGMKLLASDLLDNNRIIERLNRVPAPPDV

[2] = target: T2, Tyrosine-protein kinase Mer (Homo sapiens) (UniProt Q12866); settings: at 10 µM
T2 sequence (whole entry): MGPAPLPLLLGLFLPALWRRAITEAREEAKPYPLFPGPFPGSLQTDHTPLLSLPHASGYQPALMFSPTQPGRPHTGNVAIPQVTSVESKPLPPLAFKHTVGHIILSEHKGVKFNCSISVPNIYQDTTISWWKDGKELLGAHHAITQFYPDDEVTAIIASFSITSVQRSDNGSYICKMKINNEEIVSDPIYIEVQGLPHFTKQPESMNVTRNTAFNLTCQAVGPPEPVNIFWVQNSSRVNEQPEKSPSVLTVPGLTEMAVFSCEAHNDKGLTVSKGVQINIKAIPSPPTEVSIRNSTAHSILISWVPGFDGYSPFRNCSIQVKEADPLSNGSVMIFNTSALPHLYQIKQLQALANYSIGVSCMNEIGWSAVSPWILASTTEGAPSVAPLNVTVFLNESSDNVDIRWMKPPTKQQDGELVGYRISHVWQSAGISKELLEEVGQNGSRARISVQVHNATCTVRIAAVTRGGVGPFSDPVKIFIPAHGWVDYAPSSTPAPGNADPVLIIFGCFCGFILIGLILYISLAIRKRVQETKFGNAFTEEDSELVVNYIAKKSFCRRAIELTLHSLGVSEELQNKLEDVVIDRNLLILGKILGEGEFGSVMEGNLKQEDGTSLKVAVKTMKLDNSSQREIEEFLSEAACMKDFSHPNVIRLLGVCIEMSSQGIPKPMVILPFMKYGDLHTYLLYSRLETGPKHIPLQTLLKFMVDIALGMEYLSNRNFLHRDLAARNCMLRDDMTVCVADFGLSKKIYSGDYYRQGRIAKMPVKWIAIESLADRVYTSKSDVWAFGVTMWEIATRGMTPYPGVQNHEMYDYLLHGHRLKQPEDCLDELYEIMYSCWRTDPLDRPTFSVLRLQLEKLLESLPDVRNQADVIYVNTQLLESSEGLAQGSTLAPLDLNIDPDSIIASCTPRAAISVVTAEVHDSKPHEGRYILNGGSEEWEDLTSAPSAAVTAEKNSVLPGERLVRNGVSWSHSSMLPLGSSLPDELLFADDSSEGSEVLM

Row | inhibition [1] | inhibition [2] | SMILES
1 | 13% and 12% | 50% | NC(=O)c1cccc(Nc2nccc(Nc3cccc(F)c3)n2)c1
2 | -2% and 0% | 0% | CCn1c(-c2nonc2N)nc2cncc(C(=O)N3CCNCC3)c21
3 | 6% and 4% | 4% | COc1cc(N2CCN(C(C)C)CC2)ccc1Nc1nc(Nc2ccc(F)cc2C(N)=O)c2cc[nH]c2n1
4 | 0% and 1% | -6% | COC(=O)c1cncc(/C=C/c2c(C)cc(O)cc2C)c1
5 | -1% and 0% | 6% | COc1ccc(-c2nn3ncccc3c2-c2ccnc(Nc3cccc(C(F)(F)F)c3)n2)cc1
6 | 1% and 2% | 3% | Nc1ncc(-c2cccc(S(N)(=O)=O)c2)c2scc(-c3ccc(F)c(Cl)c3)c12
7 | 0% and -1% | 71% | NC(=O)Cc1ccccc1Oc1nccc(-c2c(-c3ccc(F)cc3)ncn2C2CCNCC2)n1
8 | -3% | -2% | CN1CCC(n2cnc(-c3ccc(F)cc3)c2-c2ccnc(NCCO)n2)CC1
9 | -1% and -3% | -3% | O=C(O[C@H]1CN[C@H](C#Cc2cc3ncnc(Nc4ccc(OCc5cccc(F)c5)c(Cl)c4)c3s2)C1)N1CCOCC1
10 | 59% | -6% | COc1cc(Nc2ncc3c(C)nc(-c4cccc(Oc5ccccc5)c4)n3n2)cc(OC)c1OC
11 | -2% and 0% | 6% | C#Cc1cccc(Nc2ncnc3ccc(OCCCCNCCS(C)(=O)=O)cc23)c1
12 | -2% | 86% | COc1ccc2ncn(-c3cc(O[C@H](C)c4ccccc4Cl)c(C(N)=O)s3)c2c1
13 | 17% and 15% | -1% | NS(=O)(=O)c1ccc(N/N=C2\C(=O)Nc3ccc(C(=O)NCCc4c[nH]cn4)cc32)cc1
14 | 5% | 0% | NS(=O)(=O)c1cccc(Nc2cc(-c3ccc(F)cc3)n[nH]2)c1
15 | 10% and 5% | 79% | CCS(=O)(=O)c1ccc(OC)c(Nc2ncc(-c3cccc(-c4ccccc4F)c3)o2)c1
16 | -1% and -2% | -7% | COc1cc2c(cc1Nc1nc(Nc3cccc(F)c3C(N)=O)c3cc[nH]c3n1)N(C(=O)CN1CCN(C(C)C)CC1)CC2
17 | -1% and 1% | -6% | COc1cccc(/C=N/Nc2ncnc3c2cnn3-c2cccc(OC)c2)c1
18 | -1% and 0% | 44% | CC1=C(C(=O)Nc2ccc3[nH]nc(C)c3c2)C(c2ccc(C(F)(F)F)cc2)CC(=O)N1 (stereo not drawn)
19 | 1% and 3% | 4% | Nc1nccc(-c2c(-c3ccc(F)cc3)ncn2CCCN2CCOCC2)n1
20 | -3% and -1% | 99% | c1ccc(COc2ccc(Nc3ncnc4ccc(-c5ccco5)cc34)cc2)cc1
21 | 5% | 27% | O=C1NC(=O)C(c2cccc(Cl)c2)=C1Nc1ccc(Cl)c(C(=O)O)c1
22 | -4% | -3% | COc1ccc(-c2coc3ncnc(N)c23)cc1
23 | -2% and -3% | 78% | N#Cc1c(NC(=O)c2cccc3ccccc23)sc2c1CCCC2
24 | -3% and 0% | -3% | CCc1nccc2c1nc(-c1nonc1N)n2CC
25 | -2% and 0% | -2% | Cc1cc(O)cc(C)c1/C=C/c1cncc(C(=O)OC(C)(C)C)c1
26 | 0% and 1% | -3% | NS(=O)(=O)c1ccc(-c2cc3ccncc3cc2OCc2ccccc2)cc1
27 | -2% and -3% | -7% | CCc1cccc(CC)c1/C=C/c1cncc(C(=O)NC)c1

Further lines, the compound ahead of its results:

Row | SMILES | inhibition [1] | inhibition [2]
28 | CCn1c(-c2nonc2N)nc2c(C#CCN)ncc(OCCCN)c21 | 8% and 6% | -4%
29 | COc1cc2ncnc(Nc3ccc(C)c(O)c3)c2cc1OC | -1% and -2% | -10%
30 | Fc1ccc(-c2nc3n(c2-c2ccncc2)CCS3)cc1 | -1% and -2% | 73%
31 | O=C(Nc1n[nH]c2cc(-c3cc(F)ccc3F)ccc12)C1CC1 | -3% | 6%
32 | COc1cc(Nc2nccc(Nc3ccc4c(C)n[nH]c4c3)n2)cc(OC)c1OC | 22% and 23% | -5%
33 | NC(=O)c1sc(-n2cnc3ccccc32)cc1OCc1ccccc1Br | 2% and -1% | 45%
34 | COc1ccc(-c2nn3ncccc3c2-c2ccnc(Nc3ccc(F)c(F)c3)n2)cc1 | -4% and -3% | -4%
35 | Nc1nonc1-c1nc2cnccc2n1C1CCCCC1 | 25% | 1%
36 | COc1cc2ncn(-c3cc(OCc4ccccc4Cl)c(C(N)=O)s3)c2cc1OC | 8% and 7% | 83%
37 | Cc1ccc2c(-c3ccnc(Nc4cccc(C(F)(F)F)c4)n3)c(-c3ccccc3)nn2n1 | 1% and 3% | 4%
38 | NS(=O)(=O)c1cccc(-c2ccc3c(NC(=O)C4CC4)n[nH]c3c2)c1 | -1% and 0% | -7%
39 | COc1cc(Nc2nccc(-c3cnn4ncccc34)n2)cc(OC)c1 | 38% | 5%
40 | Cc1ccc(C(=O)NC(C)C)cc1-c1ccc(C(=O)NCC2CC2)cc1 | 0% and -2% | -2%
41 | c1ccc(-c2n[nH]cc2-c2ccnc(-c3ccc(OCCn4ccnc4)cc3)c2)nc1 | -2% and 0% | 0%
42 | CCOc1ccc2c(-c3ccnc(Nc4cc(OC)cc(C(F)(F)F)c4)n3)cnn2n1 | 32% and 31% | -5%
43 | Clc1ccc(CNc2nccc(-c3cnn4ncccc34)n2)cc1 | 0% | -4%

Row | SMILES | inhibition [1] | inhibition [2]
44 | CS(=O)(=O)CCNCc1ccc(-c2ccc3ncnc(Nc4ccc(OCc5cccc(C(F)(F)F)c5)cc4)c3c2)o1 | 1% and -1% | -2%
45 | Cc1ccc(C(=O)NC2CCC2)cc1-c1ccc(C(=O)NCC2CC2)cc1 | -1% and -2% | 2%
46 | COC(=O)Nc1nc2ccc(Sc3ccc(NC(=O)Nc4cc(C(F)(F)F)ccc4F)cc3)cc2[nH]1 | -2% and -1% | 21%
47 | Cc1ccc2c(c1)/C(=N/Nc1ccc(S(N)(=O)=O)cc1)C(=O)N2 | -1% and 1% | 66%
48 | CNC(=O)c1cccc(C#Cc2cncnc2Nc2ccc(OCc3cccc(F)c3)c(Cl)c2)c1 | 7% and 1% | 61%
49 | CN1CCN(C(=O)c2ccc(NC(=O)Nc3ccc(N(C)c4ccnc(Nc5ccc(CS(C)(=O)=O)cc5)n4)cc3)cc2)CC1 | 26% and 22% | 0%
50 | O=C(O[C@H]1CN[C@H](C#Cc2cc3ncnc(Nc4ccc(Cc5ccccc5)cc4)c3s2)C1)N1CCOCC1 | 4% and 2% | 5%
51 | COc1cc(C=NNc2ncnc3c2cnn3Cc2ccccc2)ccc1O | 1% and -1% | 5%
52 | [O-][S+]1CCN(Cc2ccc(-c3ccc4ncnc(Nc5ccc(OCc6ccccc6)c(Cl)c5)c4c3)o2)CC1 | -3% | -5%
53 | COc1cc(/C=N/Nc2ncnc3[nH]ncc23)ccc1O | 20% | 6%
54 | CS(=O)(=O)CCNCc1ccc(-c2ccc3ncnc(Nc4ccc(OCc5cccc(F)c5)c(C(F)(F)F)c4)c3c2)o1 | 1% and 4% | 50%
55 | COc1ccc(-c2ccc3c(NC(=O)C4CC4)n[nH]c3n2)cc1 | -1% and 0% | -5%
56 | CCn1c(-c2nonc2N)nc2ccc(F)cc21 | -1% | -4%
57 | COc1cc2ncn(-c3cc(O[C@@H](C)c4ccccc4Cl)c(C(N)=O)s3)c2cc1OC | 6% and 8% | 69%
58 | COc1c(C(N)=O)cc(-c2ccc(Cl)cc2)cc1-c1ccc(S(N)(=O)=O)cc1 | -1% and 0% | -6%
59 | Fc1cccc(COc2ccc(Nc3ncnc4sc(-c5cccs5)cc34)cc2Cl)c1 | -2% | -10%
